According to the supplement of paper PMC11061612:

Experiments:
Assay in all cases: Bliss excess, mean over the matrix (fraction); higher = more synergy
[1] = tested on: COLO-668 (Small Cell Lung Carcinoma)
Outline: (§1)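 After 24 hours at 37°C and 5% CO2 in 1536-well plates, cells in DMEM/F12 or RPMI plus 10% FBS received two-drug dose matrices for 72 hours. Viability came from CellTiter-Glo 2.0 luminescence and was scaled as inhibition, anchored at 0 by vehicle wells and at 1 by blank wells. Combination Emax is taken as the second-highest inhibition in the matrix, and Bliss excess as the observed combination effect less EA + EB − EA·EB, with EA and EB the single-agent effects.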

[2] = tested on: EFO-21 (Ovarian Carcinoma)
Outline: as §1

[3] = tested on: HAL-01 (B-Lymphoblastic Leukemia)
Outline: as §1

[4] = tested on: KMRC-1 (Kidney Carcinoma)
Outline: as §1

[5] = tested on: ME-180 (Cervical Carcinoma)
Outline: as §1

[6] = tested on: ML-2 (Acute Myeloid Leukemia)
Outline: as §1

[7] = tested on: MOLT-4 (T-Lymphoblastic Leukemia)
Outline: as §1

[8] = tested on: MV-4-11 (Acute Myeloid Leukemia)
Outline: as §1

[9] = tested on: NCI-H1355 (Lung Adenocarcinoma)
Outline: as §1

[10] = tested on: NCI-H1993 (Lung Adenocarcinoma)
Outline: as §1

[11] = tested on: SNU-387 (Hepatocellular Carcinoma)
Outline: as §1

[12] = tested on: SW982 (Other Solid Carcinomas)
Outline: as §1

Row | Structure (SMILES) | Bliss excess [1] | Bliss excess [2] | Bliss excess [3] | Bliss excess [4] | Bliss excess [5] | Bliss excess [6] | Bliss excess [7] | Bliss excess [8] | Bliss excess [9] | Bliss excess [10] | Bliss excess [11] | Bliss excess [12]
1 | C=CCn1c(=O)c2cnc(Nc3ccc(N4CCN(C)CC4)cc3)nc2n1-c1cccc(C(C)(C)O)n1 [AZD1775] + Nc1ccn([C@@H]2O[C@H](CO)[C@@H](O)C2(F)F)c(=O)n1 [Gemcitabine] (first compound max 1 µM, partner max 0.3 µM) | -0.0734 | -0.0653 | -0.0026 | -0.0495 | 0.0154 | 0.0482 | 0.0162 | 0.0238 | 0.0478 | -0.0021 | -0.0035 | -0.0248
2 | C[C@@H](Nc1cc(F)cc(F)c1)c1cc(C(=O)N(C)C)cc2c(=O)cc(N3CCOCC3)oc12 [AZD8186] + C1CN(CCC1(C(=O)N[C@@H](CCO)C2=CC=C(C=C2)Cl)N)C3=NC=NC4=C3C=CN4 [AZD5363] (first compound max 10 µM, 7x7, partner max 10 µM) | -0.002 | -0.0376 | -0.0657 | -0.0524 | -0.0133 | -0.0217 | -0.0083 | 0.0103 | -0.0244 | 0.0154 | -0.0959 | -0.0763
3 | CC1(C)CCC(CN2CCN(c3ccc(C(=O)NS(=O)(=O)c4ccc(NCC5CCOCC5)c([N+](=O)[O-])c4)c(Oc4cnc5[nH]ccc5c4)c3)CC2)=C(c2ccc(Cl)cc2)C1 [Venetoclax] + CS(=O)(=O)CCNCc1ccc(-c2ccc3ncnc(Nc4ccc(OCc5cccc(F)c5)c(Cl)c4)c3c2)o1 [Lapatinib] (first compound max 1 µM, 7x7, partner max 10 µM) | 0.0091 | -0.0323 | 0.102 | -0.0584 | 0.0153 | 0.146 | 0.0967 | 0.0293 | -0.0548 | -0.0311 | -0.0514 | -0.0456
4 | CN(CCO)CC[C@H](CSc1ccccc1)Nc1ccc(S(=O)(=O)NC(=O)c2ccc(N3CCC([C@@H](O)c4ccccc4-c4ccc(Cl)cc4)CC3)cc2)cc1S(=O)(=O)C(F)(F)F [AZD4320] + CS(=O)(=O)CCNCc1ccc(-c2ccc3ncnc(Nc4ccc(OCc5cccc(F)c5)c(Cl)c4)c3c2)o1 [Lapatinib] (first compound max 1 µM, 7x7, partner max 10 µM) | 0.0881 | -0.0104 | 0.193 | 0.0223 | 0.0726 | 0.0678 | 0.0886 | 0.018 | 0.0077 | 0.0682 | 0.0496 | 0.0799
5 | C[C@@H]1COCCN1c1cc(C2([S@](C)(=N)=O)CC2)nc(-c2ccnc3[nH]ccc23)n1 [AZD6738] + Nc1ccn([C@@H]2O[C@H](CO)[C@@H](O)C2(F)F)c(=O)n1 [Gemcitabine] (first compound max 10 µM, 7x7, partner max 0.3 µM) | 0.0525 | 0.0847 | -0.0031 | 0.0601 | 0.0564 | 0.108 | 0.0315 | 0.0067 | 0.0732 | -0.0098 | 0.0597 | 0.0352
6 | CS(=O)(=O)CCNCc1ccc(-c2ccc3ncnc(Nc4ccc(OCc5cccc(F)c5)c(Cl)c4)c3c2)o1 [Lapatinib] + Cn1cnc2c(F)c(Nc3ccc(Br)cc3Cl)c(C(=O)NOCCO)cc21 [Selumetinib] (first compound max 10 µM, 7x7, partner max 10 µM) | -0.0388 | 0.0118 | 0.0997 | -0.0772 | -0.028 | -0.151 | 0.0852 | 0.0464 | -0.0323 | 0.0118 | 0.0212 | 0.034
7 | O=C(c1cc(Cc2n[nH]c(=O)c3ccccc23)ccc1F)N1CCN(C(=O)C2CC2)CC1 [Olaparib] + CN(CC[C@H](CSC1=CC=CC=C1)NC2=C(C=C(C=C2)S(=O)(=O)NC(=O)C3=CC=C(C=C3)N4CCC(CC4)[C@H](C5=CC=CC=C5C6=CC=C(C=C6)Cl)O)S(=O)(=O)C(F)(F)F)CCO [AZD4320] (first compound max 10 µM, 7x7, partner max 1 µM) | 0.0025 | -0.0415 | 0.0353 | -0.0501 | -0.021 | 0.0877 | 0.0581 | -0.0086 | -0.0336 | -0.0405 | -0.0863 | 0.0389
8 | C[C@@H]1COCCN1c1cc(C2([S@](C)(=N)=O)CC2)nc(-c2ccnc3[nH]ccc23)n1 [AZD6738] + C1CC(C1)(C(=O)[O-])C(=O)[O-].N.N.[Pt+2] [Carboplatin] (first compound max 10 µM, 7x7, partner max 10 µM) | 0.025 | -0.0606 | -0.0435 | -0.0289 | -0.013 | -0.0111 | -0.013 | -0.0339 | -0.0345 | -0.0211 | -0.0308 | -0.0453
9 | Cc1c2c(nn1C)CSCc1cc(n(C)n1)CSc1cc(c3ccccc3c1)OCCCc1c(C(=O)O)n(C)c3c-2c(Cl)ccc13 [AZD5991] + Nc1ccn([C@@H]2O[C@H](CO)[C@@H](O)C2(F)F)c(=O)n1 [Gemcitabine] (first compound max 1 µM, 7x7, partner max 0.3 µM) | -0.0674 | -0.0204 | 0.0025 | -0.0638 | -0.036 | 0.0116 | 0.0224 | 0.0035 | -0.0333 | -0.0064 | -0.0021 | -0.0594
